Data: patent US20260035376A1, “COMPOSITIONS AND METHODS FOR INHIBITION OF RAS” (TheRas, Inc., priority 2022, published 2026)

How the values were obtained:
[1] = tested on: KRAS G12D protein/effector signaling in GP2d cells; experiment: Cell-based pERK HTRF assay in GP2d cell; conditions: 1 h, 60 min incubation
Method: A pERK assay (Perkin Elmer) was used to determine the effectiveness of compounds in disrupting KRAS G12D protein/effector signaling in cells.
On Day 1, cells (GP2d) were seeded into 96-well plates at 3×10^4 cells/well in 80 μL complete growth media (DMEM, 10% FBS).
(§1) On Day 2, cells were treated with compounds at 0.25% DMSO. The source plate was created with compounds diluted in media at 5-fold the final assay concentration. The compounds were run in a 9-point concentration curve starting at 1 M, with a half-log dilution between concentrations. 20 μL was transferred onto the cell plates (final volume in wells was 100 μL). Plates were harvested after 60 min incubation by aspirating media and adding kit-supplied 1× supplemented lysis buffer to all wells (50 μL per well). Plates were then placed on a plate shaker and incubated at 850 rpm for an additional 30 min.
Antibody mixture solution was prepared by diluting aliquoted d2 and Eu Cryptate antibodies 1:20 in kit supplied detection buffer, and mixing the diluted antibodies solutions (1:1 v:v). 4 μL of this solution was then added to a 384-well detection plate (Perkin Elmer; 6008230).
(§2) Samples were homogenized by pipetting up and down and then transferred (16 μL of cell lysates) from the 96-well cell culture plate to two wells of the HTRF 384-well detection plate containing the antibody solution. Plates were centrifuged (524 g for 1 min) and allowed to incubate between 4 and 24 h at room temperature. Maximum signal was reached after 4 h incubation time and remained stable over a period of 24 hours. Therefore, readings could be made between 4 and 24 h of incubation. Plates were centrifuged again (524 g for 1 min), then analyzed on the EnVision plate reader using the following settings: Excitation 320 nm, Bandwidth 75 nm; Emission 615 nm, Bandwidth 85 nm; Gain 100%; Flashes 100; Lag 60 μs.

[2] = target: T1, Avi-KRAS WT (1-169) GppNHp/RAF1 RBD-3×FLAG (52-151) (Homo sapiens, UniProt P01116); experiment: Disrupting RAS-effector binding HTRF assay, Raf1 RBD-KRAS WT-GppNHp; conditions: PPI HTRF, 50 nM Avi-KRAS WT GppNHp, compound titration 30-0.0045 μM; read-out: Raf1 RBD-KRAS WT-GppNHp disruption
T1 construct: 50 nM Avi-KRAS WT (1-169) GppNHp/RAF1 RBD-3×FLAG (52-151)
T1 sequence (P01116 1-169 isoform P01116-2 limits assumed): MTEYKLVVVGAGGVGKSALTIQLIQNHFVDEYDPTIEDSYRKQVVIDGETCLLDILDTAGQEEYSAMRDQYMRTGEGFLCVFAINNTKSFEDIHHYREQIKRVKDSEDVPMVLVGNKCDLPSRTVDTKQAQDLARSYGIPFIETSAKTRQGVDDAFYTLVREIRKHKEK
Method: (§3) A protein:protein interaction (PPI) Homogeneous Time Resolved Fluorescence (HTRF) assay was used to determine the effectiveness of compounds of the present disclosure in disrupting KRAS protein and effector RAF1 binding.
(§4) The HTRF assay used the following reagents and proteins: (i) 50 nM Avi-KRAS G12D (1-169) GppNHp/RAF1 RBD-3×FLAG (52-151); (ii) 50 nM Avi-KRAS G12R (1-169) GppNHp/RAF1 RBD-3×FLAG (52-151); (iii) 50 nM Avi-KRAS G12V (1-169) GppNHp/RAF1 RBD-3×FLAG (52-151), (iv) 50 nM Avi-KRAS WT (1-169) GppNHp/RAF1 RBD-3×FLAG (52-151); and (v) 75 nM Avi-RAF1 RBD-3×FLAG. The assay buffer included: 50 mM Tris pH 7.5, 100 mM NaCl, 5 mM MgCl2, 0.1% BSA, […], 10% DMSO. The bead buffer included: 50 mM Tris pH 7.5, 0.01% o Tween 20. Assay volume of 20 μL was used in a 384 well plate-low volume format. Compound titration: 30-0.0045 μM, 3× dilution series.
(§5) The HTRF assay employed the following protocol:
(§6) Compounds were dispensed in assay plate (384-well, Grenier Bione #784075) using Echo (model 555) with dose response settings: 200 nL final volume, titration from 30 μM as a 10-point dilution series. Protein mix was prepared in assay buffer, and dispensed on plates, 10 μL per well, then incubated for 1 h at room temperature, with 700 rpm shaking. Reagents mix was prepared and dispensed on plates, 10 μL per well, then incubated for 1 h at room temperature, with 700 rpm shaking.
(§7) Plates were analyzed on an Envision plate reader using the following setting: Excitation 320 nm, Bandwidth 75 nM; Emission 615 nm, Bandwidth 85 nM, Gain 100%, Flashes 100, Lag 60 μs. Data were reported as percentage of activity, with DMSO as 100%. Data were plotted and analyzed using Prism 8.
(§8) The biochemical Raf1-KRAS G12D/G12R/G12V/WT-GppNHP disruption assay IC50 of selected compounds described herein are shown in Table 4.

[3] = target: T2, Avi-KRAS G12R (1-169) GppNHp/RAF1 RBD-3×FLAG (52-151) (Homo sapiens, UniProt P01116, G12R); experiment: Disrupting RAS-effector binding HTRF assay, Raf1 RBD-KRAS G12R-GppNHp; conditions: PPI HTRF, 50 nM Avi-KRAS G12R GppNHp, compound titration 30-0.0045 μM; read-out: Raf1 RBD-KRAS G12R-GppNHp disruption
T2 construct: 50 nM Avi-KRAS G12R (1-169) GppNHp/RAF1 RBD-3×FLAG (52-151)
T2 sequence (P01116 1-169 isoform P01116-2 G12R limits assumed): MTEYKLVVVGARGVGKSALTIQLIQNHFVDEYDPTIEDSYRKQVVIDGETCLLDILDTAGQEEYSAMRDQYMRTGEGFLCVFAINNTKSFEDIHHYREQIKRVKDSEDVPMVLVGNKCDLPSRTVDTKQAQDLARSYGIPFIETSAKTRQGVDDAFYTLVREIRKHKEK
Method: as §3, §4, §5, §6, §7, §8

[4] = target: T3, Avi-KRAS G12D (1-169) GppNHp/RAF1 RBD-3×FLAG (52-151) (Homo sapiens, UniProt P01116, G12D); experiment: Disrupting RAS-effector binding HTRF assay, Raf1 RBD-KRAS G12D-GppNHp; conditions: PPI HTRF, 50 nM Avi-KRAS G12D GppNHp, compound titration 30-0.0045 μM; read-out: Raf1 RBD-KRAS G12D-GppNHp disruption
T3 construct: 50 nM Avi-KRAS G12D (1-169) GppNHp/RAF1 RBD-3×FLAG (52-151)
T3 sequence (P01116 1-169 isoform P01116-2 G12D limits assumed): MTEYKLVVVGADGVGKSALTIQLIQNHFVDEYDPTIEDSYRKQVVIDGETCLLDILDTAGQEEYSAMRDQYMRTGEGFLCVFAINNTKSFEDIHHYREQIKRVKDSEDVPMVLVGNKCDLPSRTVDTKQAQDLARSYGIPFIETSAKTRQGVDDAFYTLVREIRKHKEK
Method: as §3, §4, §5, §6, §7, §8

[5] = target: T4, Avi-KRAS G12V (1-169) GppNHp/RAF1 RBD-3×FLAG (52-151) (Homo sapiens, UniProt P01116, G12V); experiment: Disrupting RAS-effector binding HTRF assay, Raf1 RBD-KRAS G12V-GppNHp; conditions: PPI HTRF, 50 nM Avi-KRAS G12V GppNHp, compound titration 30-0.0045 μM; read-out: Raf1 RBD-KRAS G12V-GppNHp disruption
T4 construct: 50 nM Avi-KRAS G12V (1-169) GppNHp/RAF1 RBD-3×FLAG (52-151)
T4 sequence (P01116 1-169 isoform P01116-2 G12V limits assumed): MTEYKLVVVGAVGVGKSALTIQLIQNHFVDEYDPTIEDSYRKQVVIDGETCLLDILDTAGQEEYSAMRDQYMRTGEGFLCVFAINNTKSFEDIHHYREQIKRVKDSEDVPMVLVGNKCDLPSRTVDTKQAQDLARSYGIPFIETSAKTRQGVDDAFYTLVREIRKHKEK
Method: as §3, §4, §5, §6, §7, §8

[6] = tested on: KRAS G12V protein/effector signaling in SW620 cells; experiment: Cell-based pERK HTRF assay in SW620 cell; conditions: Homo sapiens, SW-620, 1 h incubation
Method: pERK assay (Perkin Elmer) was used to determine the effectiveness of compounds in disrupting KRAS G12V protein/effector signaling in cells.
On Day 1, cells (SW620) were seeded into 96-well plates at 3×10^4 cells/well in 80 μL complete growth media (DMEM, 10% FBS).
as §1, with “10 μM,” for “1 M,”, “1 h” for “60 min”
Antibody mixture solution was prepared by diluting aliquoted d2 and Eu Cryptate antibodies 1:20 in kit supplied detection buffer, and mixing the diluted antibodies solutions (1:1 v:v). Four μL of this solution was then added to a 384-well detection plate (Perkin Elmer; 6008230).
as §2

| Structure (SMILES) | IC50 [1] [µM] | IC50 [2] [µM] | IC50 [3] [µM] | IC50 [4] [µM] | IC50 [5] [µM] | IC50 [6] [µM] |
| --- | --- | --- | --- | --- | --- | --- |
| CC(=O)N(C)c1nc(N2C[C@H]3CC[C@@H](C2)N3)c2cc(C(F)(F)F)c(-c3ccc(F)c4sc(N)c(C#N)c34)c(F)c2n1 [Compound 21, N-(7-(2-amino-3-cyano-7-fluorobenzo[b]thiophen-4-yl)-4-((1R,5S)-3,8-diazabicyclo[3.2.1]octan-3-yl)-8-fluoro-6-(trifluoromethyl)quinazolin-2-yl)-N-methylacetamide] | 0.1 to 1 | 1 to 10 | > 10 | > 10 | > 10 | – |
| Cc1nc(N2C[C@H]3CC[C@@H](C2)N3)c2cc(C(F)(F)F)c(-c3ccc(F)c4sc(N)c(C#N)c34)c(F)c2n1 [Compound 22, 4-(4-((1R,5S)-3,8-diazabicyclo[3.2.1]octan-3-yl)-8-fluoro-2-methyl-6-(trifluoromethyl)quinazolin-7-yl)-2-amino-7-fluorobenzo[b]thiophene-3-carbonitrile] | ≤ 0.1 | 1 to 10 | > 10 | 1 to 10 | > 10 | – |
| CCCc1nc(N2CC3CCC(C2)N3)c2cc(C(F)(F)F)c(-c3ccc(F)c4sc(N)c(C#N)c34)c(F)c2n1 [Compound 23] | ≤ 0.1 | 1 to 10 | > 10 | 1 to 10 | > 10 | – |
| N#Cc1c(N)sc2c(F)ccc(-c3c(C(F)(F)F)cc4c(N5CC6CCC(C5)N6)nc(OC[C@H]5CNC(=O)C5)nc4c3F)c12 [Compound 24] | ≤ 0.1 | 0.1 to 1 | 1 to 10 | 0.1 to 1 | 1 to 10 | – |
| N#Cc1c(N)sc2c(F)ccc(-c3c(C(F)(F)F)cc4c(N5CC6CCC(C5)N6)nc(N5CCNC(=O)CC5)nc4c3F)c12 [Compound 25] | 0.1 to 1 | 1 to 10 | > 10 | 1 to 10 | > 10 | – |
| N#Cc1c(N)sc2c(F)ccc(-c3c(C(F)(F)F)cc4c(N5CC6CCC(C5)N6)nc(N5CCNS(=O)(=O)CC5)nc4c3F)c12 [Compound 26] | 0.1 to 1 | 1 to 10 | > 10 | 1 to 10 | > 10 | – |
| CN(C(=O)c1cnn(C)c1)c1nc(N2CC3CCC(C2)N3)c2cc(C(F)(F)F)c(-c3ccc(F)c4sc(N)c(C#N)c34)c(F)c2n1 [Compound 27] | 0.1 to 1 | 1 to 10 | > 10 | > 10 | > 10 | – |
| N#Cc1c(N)sc2c(F)ccc(-c3c(C(F)(F)F)cc4c(N5CC6CCC(C5)N6)nc(OC[C@@H]5CC(=O)N5)nc4c3F)c12 [Compound 39] | 0.1 to 1 | 1 to 10 | > 10 | 1 to 10 | > 10 | – |
| CN(c1ncnc2c(F)c(-c3ccc(F)c4sc(N)c(C#N)c34)c(C(F)(F)F)cc12)[C@@H]1CCNC1 [Compound 58] | 0.1 to 1 | > 10 | > 10 | 1 to 10 | > 10 | – |
| COc1nc(N(C)[C@@H]2CCNC2)c2cc(C(F)(F)F)c(-c3ccc(F)c4sc(N)c(C#N)c34)c(F)c2n1 [Compound 59] | 0.1 to 1 | > 10 | > 10 | 1 to 10 | > 10 | – |
| COc1nc(N2C[C@@H](C)NC[C@@H]2C)c2cc(C(F)(F)F)c(-c3ccc(F)c4sc(N)c(C#N)c34)c(F)c2n1 [Compound 60] | > 1 | > 10 | > 10 | > 10 | > 10 | – |
| C[C@@H]1CN(c2ncnc3c(F)c(-c4ccc(F)c5sc(N)c(C#N)c45)c(C(F)(F)F)cc23)[C@@H](C)CN1 [Compound 64] | ≤ 0.1 | > 10 | > 10 | 1 to 10 | > 10 | – |
| CO[C@H](C)COc1nc(N2CC3CCC(C2)N3)c2cc(C(F)(F)F)c(-c3ccc(F)c4sc(N)c(C#N)c34)c(F)c2n1 [Compound 66] | ≤ 0.1 | – | – | – | – | > 10 |
| COC[C@@H](C)Oc1nc(N2CC3CCC(C2)N3)c2cc(C(F)(F)F)c(-c3ccc(F)c4sc(N)c(C#N)c34)c(F)c2n1 [Compound 67] | ≤ 0.1 | – | – | – | – | > 10 |
| N#Cc1c(N)sc2c(F)ccc(-c3c(C(F)(F)F)cc4c(N5CC6CCC(C5)N6)nc(O[C@@H]5CCOC5)nc4c3F)c12 [Compound 68] | ≤ 0.1 | – | – | – | – | > 10 |
| N#Cc1c(N)sc2c(F)ccc(-c3c(C(F)(F)F)cc4c(N5CC6CCC(C5)N6)nc(O[C@H]5CCOC5)nc4c3F)c12 [Compound 69] | ≤ 0.1 | – | – | – | – | > 10 |
| N#Cc1c(N)sc2c(F)ccc(-c3c(C(F)(F)F)cc4c(N5CC6CCC(C5)N6)nc(OC5CCOCC5)nc4c3F)c12 [Compound 70] | ≤ 0.1 | – | – | – | – | > 10 |
| COC[C@H](C)Oc1nc(N2CC3CCC(C2)N3)c2cc(C(F)(F)F)c(-c3ccc(F)c4sc(N)c(C#N)c34)c(F)c2n1 [Compound 71] | ≤ 0.1 | – | – | – | – | > 10 |
| CO[C@@H](C)COc1nc(N2CC3CCC(C2)N3)c2cc(C(F)(F)F)c(-c3ccc(F)c4sc(N)c(C#N)c34)c(F)c2n1 [Compound 72] | ≤ 0.1 | – | – | – | – | > 10 |
